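Interpolation was linear, between the two tested concentrations surrounding the appropriate level; five concentrations were tested over 48 hours in 96-well plates. Abbreviation: GI50, concentration required for 50% inhibition of growth. Definition used: TGI = concentration required for complete inhibition of growth.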
How the values were obtained:
Assay in all cases: NCI tumour cell line growth inhibition, 48 h
SR leukemia = tested on: SR leukemia
OVCAR-3 ovarian = tested on: OVCAR-3 ovarian
OVCAR-8 ovarian = tested on: OVCAR-8 ovarian
NCI-H23 lung = tested on: NCI-H23 lung
SW-620 colon = tested on: SW-620 colon
SK-MEL-28 melanoma = tested on: SK-MEL-28 melanoma
T-47D breast = tested on: T-47D breast
HT29 colon = tested on: HT29 colon
IGROV1 ovarian = tested on: IGROV1 ovarian
BT-549 breast = tested on: BT-549 breast
SK-MEL-2 melanoma = tested on: SK-MEL-2 melanoma
UACC-257 melanoma = tested on: UACC-257 melanoma
SNB-19 CNS = tested on: SNB-19 CNS
SF-539 CNS = tested on: SF-539 CNS
U251 CNS = tested on: U251 CNS
RXF 393 renal = tested on: RXF 393 renal
SF-295 CNS = tested on: SF-295 CNS
KM12 colon = tested on: KM12 colon
NCI/ADR-RES ovarian = tested on: NCI/ADR-RES ovarian
M14 melanoma = tested on: M14 melanoma
NCI-H522 lung = tested on: NCI-H522 lung
MDA-MB-231 breast = tested on: MDA-MB-231 breast
CAKI-1 renal = tested on: CAKI-1 renal
UACC-62 melanoma = tested on: UACC-62 melanoma
NCI-H226 lung = tested on: NCI-H226 lung
SN12C renal = tested on: SN12C renal
HOP-92 NSCLC = tested on: HOP-92 NSCLC
COLO 205 colon = tested on: COLO 205 colon
A498 renal = tested on: A498 renal

CCOc1ccc(/C=C/C(=O)c2ccccc2)cc1
GI50 (SR leukemia): 8.5 µM
TGI (SR leukemia): 43.5 µM
GI50 (OVCAR-3 ovarian): 15.5 µM
TGI (OVCAR-3 ovarian): 29.3 µM
GI50 (OVCAR-8 ovarian): 14.8 µM
TGI (OVCAR-8 ovarian): 34.6 µM
GI50 (NCI-H23 lung): 16.9 µM
TGI (NCI-H23 lung): 37.2 µM
GI50 (SW-620 colon): 7.73 µM
TGI (SW-620 colon): 21.1 µM
GI50 (SK-MEL-28 melanoma): 19.8 µM
TGI (SK-MEL-28 melanoma): 39.6 µM
GI50 (T-47D breast): 14.2 µM
TGI (T-47D breast): 48.7 µM
GI50 (HT29 colon): 13.8 µM
TGI (HT29 colon): 29.6 µM
GI50 (IGROV1 ovarian): 16.3 µM
TGI (IGROV1 ovarian): 39.7 µM
GI50 (BT-549 breast): 26.4 µM
TGI (BT-549 breast): 62 µM
GI50 (SK-MEL-2 melanoma): 20.4 µM
TGI (SK-MEL-2 melanoma): 38.2 µM
GI50 (UACC-257 melanoma): 16.1 µM
TGI (UACC-257 melanoma): 33.1 µM
GI50 (SNB-19 CNS): 16.8 µM
TGI (SNB-19 CNS): 34 µM
GI50 (SF-539 CNS): 19.4 µM
TGI (SF-539 CNS): 45.5 µM
GI50 (U251 CNS): 7.19 µM
TGI (U251 CNS): 20.7 µM
GI50 (RXF 393 renal): 15.2 µM
TGI (RXF 393 renal): 29.2 µM
GI50 (SF-295 CNS): 16.8 µM
TGI (SF-295 CNS): 35 µM
GI50 (KM12 colon): 10.7 µM
TGI (KM12 colon): 23.6 µM
GI50 (NCI/ADR-RES ovarian): 18.3 µM
TGI (NCI/ADR-RES ovarian): 56.3 µM
GI50 (M14 melanoma): 18.8 µM
TGI (M14 melanoma): 38.9 µM
GI50 (NCI-H522 lung): 15.4 µM
TGI (NCI-H522 lung): 34.9 µM
GI50 (MDA-MB-231 breast): 26 µM
TGI (MDA-MB-231 breast): 72.8 µM
GI50 (CAKI-1 renal): 14.1 µM
TGI (CAKI-1 renal): 30.7 µM
GI50 (UACC-62 melanoma): 17 µM
TGI (UACC-62 melanoma): 36.5 µM
GI50 (NCI-H226 lung): 24.7 µM
TGI (NCI-H226 lung): 75.2 µM
GI50 (SN12C renal): 18.3 µM
TGI (SN12C renal): 37 µM
GI50 (HOP-92 NSCLC): 19.6 µM
TGI (HOP-92 NSCLC): 41.2 µM
GI50 (COLO 205 colon): 18 µM
TGI (COLO 205 colon): 32.4 µM
GI50 (A498 renal): 16.2 µM
TGI (A498 renal): 33.2 µM

From PubChem BioAssay (NCI)
